ChEMBL document CHEMBL1909046, “DrugMatrix in vitro pharmacology data”

Experiments:
[1] = target: T1, Alpha-1A adrenergic receptor (Rattus norvegicus, UniProt P43140); assay: DRUGMATRIX: Alpha-1A adrenergic receptor radioligand binding (ligand: prazosin); format: cell membranes, Wistar, Submaxillary gland, Membrane; conditions: Not Active = under 50% inhibition at 10 µM; for Ki: read-out: Ki
T1 sequence (P43140 whole entry): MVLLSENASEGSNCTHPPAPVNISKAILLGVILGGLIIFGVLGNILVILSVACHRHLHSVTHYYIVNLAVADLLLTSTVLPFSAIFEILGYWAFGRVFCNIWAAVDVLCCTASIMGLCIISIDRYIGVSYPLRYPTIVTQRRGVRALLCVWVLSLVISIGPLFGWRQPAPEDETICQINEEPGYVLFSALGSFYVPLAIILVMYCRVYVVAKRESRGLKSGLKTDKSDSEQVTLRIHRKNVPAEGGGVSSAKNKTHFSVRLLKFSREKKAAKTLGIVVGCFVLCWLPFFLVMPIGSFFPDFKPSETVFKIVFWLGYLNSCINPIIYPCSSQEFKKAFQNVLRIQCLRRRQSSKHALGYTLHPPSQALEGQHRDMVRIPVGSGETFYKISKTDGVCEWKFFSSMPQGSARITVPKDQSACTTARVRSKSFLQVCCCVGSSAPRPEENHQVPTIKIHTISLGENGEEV

[2] = target: Sigma non-opioid intracellular receptor 1 (Homo sapiens, UniProt Q99720); assay: DRUGMATRIX: Sigma1 radioligand binding (ligand: [3H] Haloperidol); format: cell membranes, Jurkat, Membrane; conditions: Not Active = under 50% inhibition at 10 µM; for Ki: read-out: Ki
[3] = DRUGMATRIX: GABAA, Chloride Channel, TBOB radioligand binding (ligand: [3H] TBOB); format: cell membranes, Rattus norvegicus, Wistar, Cerebral cortex, Membrane; conditions: Not Active = under 50% inhibition at 10 µM
[4] = target: Protein phosphatase 3 catalytic subunit alpha (Homo sapiens, UniProt Q08209); set-up: species or system Escherichia coli;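 also: inhibition of calcineurin (PP2B) enzyme activity, measured with DiFMUP as the substrate; in other assays of this panel Not Active means under 50% inhibition at 10 µM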
[5] = target: Tyrosine-protein kinase Lck (Homo sapiens, UniProt P06239); assay: DRUGMATRIX: Protein Tyrosine Kinase, LCK enzyme inhibition (substrate: Poly(Glu:Tyr)); format: cell-based, Insect cells; conditions: Not Active = under 50% inhibition at 10 µM
Estrogen receptor = target: T2, Estrogen receptor (Homo sapiens, UniProt P03372); conditions: sf9; also: in other assays of this panel Not Active means under 50% inhibition at 10 µM
T2 sequence (P03372 whole entry): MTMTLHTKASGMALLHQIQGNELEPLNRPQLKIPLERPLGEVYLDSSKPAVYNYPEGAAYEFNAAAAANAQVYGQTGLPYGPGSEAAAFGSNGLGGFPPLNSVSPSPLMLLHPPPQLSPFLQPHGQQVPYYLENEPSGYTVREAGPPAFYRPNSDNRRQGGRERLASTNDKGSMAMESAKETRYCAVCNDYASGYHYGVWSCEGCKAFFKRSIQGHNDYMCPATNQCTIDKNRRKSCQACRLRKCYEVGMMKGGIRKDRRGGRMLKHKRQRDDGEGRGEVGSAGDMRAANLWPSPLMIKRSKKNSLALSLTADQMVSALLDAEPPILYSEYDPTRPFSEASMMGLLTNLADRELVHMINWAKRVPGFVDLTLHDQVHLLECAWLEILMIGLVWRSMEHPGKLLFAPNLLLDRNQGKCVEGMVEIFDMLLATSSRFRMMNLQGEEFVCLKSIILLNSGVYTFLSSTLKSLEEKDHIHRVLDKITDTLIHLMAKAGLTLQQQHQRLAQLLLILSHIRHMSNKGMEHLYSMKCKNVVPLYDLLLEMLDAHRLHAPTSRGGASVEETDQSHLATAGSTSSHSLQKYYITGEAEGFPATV

Cytochrome P450 2E1 = Cytochrome P450 2E1 (Homo sapiens, UniProt P05181); conditions: bti-tn-5b1-4; also: in other assays of this panel Not Active means under 50% inhibition at 10 µM
Chain of Cytochrome P450 2E1 (P05181 whole entry): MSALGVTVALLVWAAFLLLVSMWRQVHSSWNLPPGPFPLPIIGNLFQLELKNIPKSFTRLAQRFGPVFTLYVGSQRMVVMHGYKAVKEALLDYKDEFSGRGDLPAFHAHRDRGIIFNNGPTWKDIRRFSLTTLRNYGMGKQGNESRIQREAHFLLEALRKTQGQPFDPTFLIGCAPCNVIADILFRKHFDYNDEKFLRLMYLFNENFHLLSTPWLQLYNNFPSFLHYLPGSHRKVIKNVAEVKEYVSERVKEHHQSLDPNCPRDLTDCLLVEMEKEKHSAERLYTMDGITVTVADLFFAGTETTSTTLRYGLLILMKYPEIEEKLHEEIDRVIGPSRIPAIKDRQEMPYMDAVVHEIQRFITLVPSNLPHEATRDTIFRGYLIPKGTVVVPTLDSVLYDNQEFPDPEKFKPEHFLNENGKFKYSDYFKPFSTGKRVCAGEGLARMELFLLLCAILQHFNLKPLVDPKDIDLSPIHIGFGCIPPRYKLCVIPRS

Chain of Tyrosine-protein kinase Lck (P06239 whole entry): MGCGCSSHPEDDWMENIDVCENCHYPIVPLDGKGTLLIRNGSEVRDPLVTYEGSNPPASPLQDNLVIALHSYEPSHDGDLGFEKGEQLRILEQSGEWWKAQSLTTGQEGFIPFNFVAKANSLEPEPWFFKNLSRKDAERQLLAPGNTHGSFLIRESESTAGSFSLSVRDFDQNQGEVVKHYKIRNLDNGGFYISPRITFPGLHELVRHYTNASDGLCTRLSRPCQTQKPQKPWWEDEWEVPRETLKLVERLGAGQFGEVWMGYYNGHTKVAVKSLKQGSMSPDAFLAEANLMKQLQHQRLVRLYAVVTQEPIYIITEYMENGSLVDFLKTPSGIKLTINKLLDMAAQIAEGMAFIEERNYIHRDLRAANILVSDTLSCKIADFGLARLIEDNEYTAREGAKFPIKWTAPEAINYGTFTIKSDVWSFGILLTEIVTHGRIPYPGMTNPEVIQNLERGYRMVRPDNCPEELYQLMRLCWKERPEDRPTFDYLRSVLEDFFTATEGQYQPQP
Chain of Sigma non-opioid intracellular receptor 1 (Q99720 whole entry): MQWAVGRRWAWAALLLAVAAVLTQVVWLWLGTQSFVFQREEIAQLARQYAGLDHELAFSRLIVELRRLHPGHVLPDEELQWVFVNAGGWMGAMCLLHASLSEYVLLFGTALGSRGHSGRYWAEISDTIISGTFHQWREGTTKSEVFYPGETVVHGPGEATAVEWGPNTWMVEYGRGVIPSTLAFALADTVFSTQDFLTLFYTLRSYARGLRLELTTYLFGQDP

Cc1c(C)c2c(c(C)c1O)CCC(C)(CN1CCN(c3cc(N4CCCC4)nc(N4CCCC4)n3)CC1)O2 (configuration not stated)
Not Active: IC50 [1] | IC50 ([2]; jurkat) | IC50 [3] | Ki [3] | IC50 [4] | IC50 (Estrogen receptor)
17.1 µM: IC50 ([5]; read-out: IC50)

COc1ccc(CCN(C)CCCC(C#N)(c2ccc(OC)c(OC)c2)C(C)C)cc1OC (configuration not stated)
Not Active: IC50 ([2]; jurkat) | IC50 [3] | Ki [3] | IC50 [4] | IC50 ([5]; insect cells) | IC50 (Cytochrome P450 2E1) | Ki (Cytochrome P450 2E1) | IC50 (Estrogen receptor)

CC(C)Cc1ccc([C@@H](C)C(=O)O)cc1 [(R)-IBUPROPHEN]
Not Active: IC50 [1] | IC50 ([2]; jurkat) | IC50 [3] | Ki [3] | IC50 [4] | IC50 ([5]; insect cells) | IC50 (Cytochrome P450 2E1) | Ki (Cytochrome P450 2E1) | IC50 (Estrogen receptor)

CN(C)CCOC(c1ccccc1)c1ccccc1 [DIPHENHYDRAMINE]
Not Active: IC50 [1] | IC50 ([2]; jurkat) | IC50 [4] | IC50 ([5]; insect cells) | IC50 (Estrogen receptor)

Clc1ccc(COC(Cn2ccnc2)c2ccc(Cl)cc2Cl)cc1 (configuration not stated) [ECONAZOLE]
21.1 µM: IC50 ([2]; read-out: IC50)
8.87 µM: Ki [2]
8.57 µM: Ki [1]
Not Active: IC50 [4] | IC50 ([5]; insect cells) | IC50 (Cytochrome P450 2E1) | Ki (Cytochrome P450 2E1) | IC50 (Estrogen receptor)
21.2 µM: IC50 ([1]; read-out: IC50)

CCN(CC)CCOc1ccc(/C(=C(/Cl)c2ccccc2)c2ccccc2)cc1 [ENCLOMIPHENE]
Not Active: IC50 [1] | IC50 [4] | IC50 ([5]; insect cells) | IC50 (Cytochrome P450 2E1) | Ki (Cytochrome P450 2E1)

Fc1ccc(C(c2ccc(F)cc2)N2CCN(C/C=C/c3ccccc3)CC2)cc1 [FLUNARIZINE]
0.025 µM: IC50 ([2]; read-out: IC50)
0.44 µM: Ki [1]
0.01 µM: Ki [2]
1.09 µM: IC50 ([1]; read-out: IC50)
Not Active: IC50 [4] | IC50 ([5]; insect cells) | IC50 (Cytochrome P450 2E1) | Ki (Cytochrome P450 2E1) | IC50 (Estrogen receptor)

CNCCC(Oc1ccc(C(F)(F)F)cc1)c1ccccc1 (configuration not stated) [FLUOXETINE]
Not Active: IC50 [1] | IC50 [4] | IC50 ([5]; insect cells) | IC50 (Cytochrome P450 2E1) | Ki (Cytochrome P450 2E1)

Cc1ccc(NC(=O)c2ccc(CN3CCN(C)CC3)cc2)cc1Nc1nccc(-c2cccnc2)n1 [IMATINIB]
Not Active: IC50 [1] | IC50 ([2]; jurkat) | IC50 [4] | IC50 (Cytochrome P450 2E1) | Ki (Cytochrome P450 2E1) | IC50 (Estrogen receptor)

CC(C)Oc1ccc2c(=O)c(-c3ccccc3)coc2c1 [IPRIFLAVONE]
Not Active: IC50 [1] | IC50 ([2]; jurkat) | IC50 [3] | Ki [3] | IC50 [4] | IC50 ([5]; insect cells) | IC50 (Cytochrome P450 2E1) | Ki (Cytochrome P450 2E1)

CC(C)NCC(O)c1ccc(O)c(O)c1 (configuration not stated) [ISOPROTERENOL]
Not Active: IC50 [1] | IC50 ([2]; jurkat) | IC50 [3] | Ki [3] | IC50 [4] | IC50 ([5]; insect cells) | IC50 (Cytochrome P450 2E1) | Ki (Cytochrome P450 2E1)

CNC1(c2ccccc2Cl)CCCCC1=O (configuration not stated) [KETAMINE]
Not Active: IC50 [1] | IC50 ([2]; jurkat) | IC50 [3] | Ki [3] | IC50 [4] | IC50 ([5]; insect cells) | IC50 (Cytochrome P450 2E1) | Ki (Cytochrome P450 2E1) | IC50 (Estrogen receptor)

N#Cc1ccc(C(c2ccc(C#N)cc2)n2cncn2)cc1 [LETROZOLE]
Not Active: IC50 [1] | IC50 ([2]; jurkat) | IC50 [3] | Ki [3] | IC50 [4] | IC50 ([5]; insect cells) | IC50 (Cytochrome P450 2E1) | Ki (Cytochrome P450 2E1) | IC50 (Estrogen receptor)
